Reference: US12441726B2, “Compounds and uses thereof” (Foghorn Therapeutics Inc., priority 2020, dated 2025)

Columns and labels:
[1] = biological target: BRG-1 (Homo sapiens, UniProt P51532); assay: ATPase catalytic activity assay (ADP-Glo), BRG-1; conditions: for Emax: 1 h, read-out: BRG1 Max % Inhibition, ADP-Glo, 30 nM BRG-1, 400 μM ATP
Experimental: The ATPase catalytic activity of BRM or BRG-1 was measured by an in vitro biochemical assay using ADP-Glo™ (Promega, V9102). The ADP-Glo™ kinase assay is performed in two steps once the reaction is complete. The first step is to deplete any unconsumed ATP in the reaction. The second step is to convert the reaction product ADP to ATP, which will be utilized by the luciferase to generate luminesce and be detected by a luminescence reader, such as Envision.
Then following addition of 5 μL of ADP-Glo™ Reagent provided in the kit, the reaction incubates at room temperature for 40 minutes. Then 10 μL of Kinase Detection Reagent provided in the kit is added to convert ADP to ATP, and the reaction incubates at room temperature for 60 minutes. Finally, luminescence measurement is collected with a plate-reading luminometer, such as Envision.

[2] = biological target: BRM (Homo sapiens, UniProt P51531); assay: ATPase catalytic activity assay (ADP-Glo), BRM; conditions: 30 nM BRM, 400 μM ATP; for IC50: BRM ATPase: IC50 (uM)
Sequence of BRM (P51531 whole entry): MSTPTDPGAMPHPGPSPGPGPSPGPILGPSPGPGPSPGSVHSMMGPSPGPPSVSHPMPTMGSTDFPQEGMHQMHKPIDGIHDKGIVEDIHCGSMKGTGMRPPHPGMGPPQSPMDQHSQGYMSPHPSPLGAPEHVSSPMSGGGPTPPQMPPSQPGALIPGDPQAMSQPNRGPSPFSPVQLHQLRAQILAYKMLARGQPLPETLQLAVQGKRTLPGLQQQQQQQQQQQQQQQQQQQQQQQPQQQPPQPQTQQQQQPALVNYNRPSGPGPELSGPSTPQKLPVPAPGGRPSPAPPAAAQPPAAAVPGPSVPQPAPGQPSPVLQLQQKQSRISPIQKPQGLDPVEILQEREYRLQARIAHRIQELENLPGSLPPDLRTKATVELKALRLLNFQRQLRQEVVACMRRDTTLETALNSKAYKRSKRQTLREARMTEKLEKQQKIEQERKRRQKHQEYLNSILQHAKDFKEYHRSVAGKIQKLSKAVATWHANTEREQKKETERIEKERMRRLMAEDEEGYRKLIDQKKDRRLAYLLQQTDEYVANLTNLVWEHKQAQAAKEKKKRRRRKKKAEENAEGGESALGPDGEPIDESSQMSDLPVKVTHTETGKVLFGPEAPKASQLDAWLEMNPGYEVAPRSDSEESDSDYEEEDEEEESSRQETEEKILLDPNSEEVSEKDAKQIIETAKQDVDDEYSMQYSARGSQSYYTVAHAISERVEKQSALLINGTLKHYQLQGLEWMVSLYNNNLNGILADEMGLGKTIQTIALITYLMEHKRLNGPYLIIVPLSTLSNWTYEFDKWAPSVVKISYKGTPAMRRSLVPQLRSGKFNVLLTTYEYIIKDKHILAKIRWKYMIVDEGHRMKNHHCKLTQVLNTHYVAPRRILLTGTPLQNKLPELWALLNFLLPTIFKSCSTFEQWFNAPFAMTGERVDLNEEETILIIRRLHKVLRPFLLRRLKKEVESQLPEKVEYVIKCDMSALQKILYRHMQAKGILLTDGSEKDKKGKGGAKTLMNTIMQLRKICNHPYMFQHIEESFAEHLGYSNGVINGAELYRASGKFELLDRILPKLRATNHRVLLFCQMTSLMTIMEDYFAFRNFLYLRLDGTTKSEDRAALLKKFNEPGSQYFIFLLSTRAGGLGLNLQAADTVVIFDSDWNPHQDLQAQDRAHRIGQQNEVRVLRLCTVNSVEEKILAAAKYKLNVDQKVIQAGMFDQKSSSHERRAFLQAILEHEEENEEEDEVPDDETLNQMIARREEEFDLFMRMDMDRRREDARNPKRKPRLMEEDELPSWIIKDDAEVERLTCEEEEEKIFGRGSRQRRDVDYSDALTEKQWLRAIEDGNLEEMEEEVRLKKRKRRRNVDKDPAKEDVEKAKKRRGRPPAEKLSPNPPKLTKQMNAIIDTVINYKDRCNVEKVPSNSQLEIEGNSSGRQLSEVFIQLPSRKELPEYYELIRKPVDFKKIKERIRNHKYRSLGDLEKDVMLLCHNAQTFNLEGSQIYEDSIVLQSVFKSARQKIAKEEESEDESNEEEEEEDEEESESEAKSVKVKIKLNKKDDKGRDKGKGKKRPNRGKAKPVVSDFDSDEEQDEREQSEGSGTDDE

Sequence of BRG-1 (P51532 whole entry): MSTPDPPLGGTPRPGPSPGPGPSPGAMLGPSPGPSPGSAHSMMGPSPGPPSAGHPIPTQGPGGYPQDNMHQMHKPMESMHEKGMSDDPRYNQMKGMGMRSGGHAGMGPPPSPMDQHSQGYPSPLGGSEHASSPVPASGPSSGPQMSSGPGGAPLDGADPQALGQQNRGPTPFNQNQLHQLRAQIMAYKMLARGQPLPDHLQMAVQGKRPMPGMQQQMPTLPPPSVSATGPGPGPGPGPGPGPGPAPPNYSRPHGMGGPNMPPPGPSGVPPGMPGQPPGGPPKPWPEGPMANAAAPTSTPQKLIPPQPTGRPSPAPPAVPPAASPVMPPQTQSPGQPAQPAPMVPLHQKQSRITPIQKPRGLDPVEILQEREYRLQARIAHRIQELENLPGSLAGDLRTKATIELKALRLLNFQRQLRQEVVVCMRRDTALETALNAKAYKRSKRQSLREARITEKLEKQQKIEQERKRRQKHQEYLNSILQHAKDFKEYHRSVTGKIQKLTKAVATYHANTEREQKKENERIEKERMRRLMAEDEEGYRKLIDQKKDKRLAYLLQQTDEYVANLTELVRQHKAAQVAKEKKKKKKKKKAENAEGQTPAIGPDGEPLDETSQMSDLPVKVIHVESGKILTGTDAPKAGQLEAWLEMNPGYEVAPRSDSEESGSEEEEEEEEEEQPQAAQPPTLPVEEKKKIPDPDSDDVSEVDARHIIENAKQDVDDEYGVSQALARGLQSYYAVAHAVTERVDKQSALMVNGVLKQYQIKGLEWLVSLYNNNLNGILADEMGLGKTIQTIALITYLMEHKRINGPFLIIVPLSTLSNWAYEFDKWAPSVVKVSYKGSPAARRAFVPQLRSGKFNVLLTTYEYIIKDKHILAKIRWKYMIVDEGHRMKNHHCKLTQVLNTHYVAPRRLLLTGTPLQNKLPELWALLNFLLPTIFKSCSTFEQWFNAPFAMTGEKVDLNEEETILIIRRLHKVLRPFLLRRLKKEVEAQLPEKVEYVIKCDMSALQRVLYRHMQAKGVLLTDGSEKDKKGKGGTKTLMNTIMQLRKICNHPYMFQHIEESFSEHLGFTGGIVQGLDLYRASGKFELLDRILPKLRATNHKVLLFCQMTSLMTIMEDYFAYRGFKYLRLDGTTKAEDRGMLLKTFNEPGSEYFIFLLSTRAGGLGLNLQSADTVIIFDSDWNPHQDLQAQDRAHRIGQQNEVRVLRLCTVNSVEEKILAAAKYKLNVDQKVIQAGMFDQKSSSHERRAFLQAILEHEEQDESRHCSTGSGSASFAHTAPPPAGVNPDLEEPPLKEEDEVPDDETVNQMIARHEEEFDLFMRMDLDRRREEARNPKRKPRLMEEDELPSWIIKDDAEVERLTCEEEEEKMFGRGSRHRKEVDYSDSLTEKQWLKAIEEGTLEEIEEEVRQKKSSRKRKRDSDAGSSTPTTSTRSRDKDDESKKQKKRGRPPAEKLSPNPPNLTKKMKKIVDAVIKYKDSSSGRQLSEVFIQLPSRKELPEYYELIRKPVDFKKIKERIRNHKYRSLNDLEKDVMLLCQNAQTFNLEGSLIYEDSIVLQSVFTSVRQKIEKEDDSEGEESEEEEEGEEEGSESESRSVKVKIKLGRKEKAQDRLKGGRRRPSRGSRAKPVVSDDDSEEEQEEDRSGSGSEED

Row | SMILES | IC50 [1] [nM] | Emax [1] [%] | BRM Max % Inhibition [2] [%] | IC50 [2] [µM]
1 | O=C(NCc1cc2nc(-c3ccccc3)ccc2cn1)c1cccc(C2(C(F)F)COC2)c1 [Compound 100] | > 1000 | 25 | 83 | 0.5 to 1
2 | COc1cc(-c2ccc3cnc(CNC(=O)c4ccc5c(c4)[C@](C)(C#N)COC5)cc3n2)c(F)cn1 [Compound 446] | > 1000 | 44 | 87 | 0.1 to 0.5
3 | C[C@@]1(C#N)COCc2ccc(C(=O)NCc3cc4nc(-c5cccc(C#N)c5)ccc4cn3)cc21 [Compound 112] | > 1000 | 55 | 94 | 0.1 to 0.5
4 | C[C@@]1(C#N)COCc2ccc(C(=O)NCc3cc4nc(N5CCn6nccc6C5)ccc4cn3)cc21 [Compound 486] | > 1000 | 70 | 95 | 0.1 to 0.5
5 | COC(=O)N1CCC(C#Cc2ccnc(CNC(=O)c3ccc4c(c3)[C@](C)(C#N)COC4)c2)CC1 [Compound 21] | > 1000 | 31 | 78 | > 1
6 | C[C@@H]1CN(c2nccc(-c3ccc4cnc(CNC(=O)c5ccc6c(c5)[C@](C)(C#N)COC6)cc4n3)n2)CCO1 [Compound 362] | > 1000 | 98 | 99 | < 0.1
7 | O=C(NCc1cc(C#Cc2ccccc2)ccn1)c1ccc2c(c1)[C@](F)(C(F)F)COC2 [Compound 48] | > 1000 | 11 | 67 | > 1
8 | C[C@@]1(F)COCc2ccc(C(=O)NCc3cc(C#Cc4ccccc4)ccn3)cc21 [Compound 14] | > 1000 | 64 | 94 | 0.5 to 1
9 | COC(=O)N1CCCC(c2ccc3cnc(CNC(=O)c4ccc5c(c4)[C@](C)(C#N)COC5)cc3n2)C1 (stereo partly shown) [Compound 121] | > 1000 | 44 | 81 | > 1
10 | C[C@@]1(C#N)COCc2ccc(C(=O)NCc3cc(C#Cc4ccccc4)c(F)cn3)cc21 [Compound 20] | > 1000 | 41 | 83 | 0.5 to 1
11 | COC(=O)N1CCC=C(c2ccc3cnc(CNC(=O)c4ccc5c(c4)[C@](C)(F)COC5)cc3n2)C1 [Compound 345] | > 1000 | 25 | 81 | 0.1 to 0.5
12 | C[C@@]1(C#N)CCOc2ccc(C(=O)NCc3cc4nc(-c5ccccc5)sc4cn3)cc21 [Compound 118] | > 1000 | 40 | 89 | > 1
13 | C[C@@]1(F)COCc2ncc(C(=O)NCc3cc4nc(-c5ccccc5)sc4cn3)cc21 [Compound 290] | 500 to 1000 | 53 | 94 | 0.1 to 0.5
14 | C[C@@]1(C#N)COCc2ccc(C(=O)NCc3cc4nc(-c5ccnc(N6CC7CC(C6)O7)n5)ccc4cn3)cc21 [Compound 284] | 100 to 500 | 93 | 99 | < 0.1
15 | C[C@@]1(C#N)COCc2ccc(C(=O)NCc3cc(N4CC5(CCN(c6ccccc6)C5)C4)ccn3)cc21 [Compound 12] | > 1000 | 22 | 79 | > 1
16 | O=C(NCc1cc2nc(-c3cncc(C4CC4)n3)ccc2cn1)c1cnc2c(c1)[C@](F)(C(F)F)CCO2 [Compound 241] | 500 to 1000 | 63 | 97 | 0.1 to 0.5
17 | C[C@@]1(C#N)COCc2ccc(C(=O)NCc3cc4nc(-c5cnn(C6COC6)c5)ccc4cn3)cc21 [Compound 513] | > 1000 | 36 | 87 | 0.1 to 0.5
18 | C[C@@]1(C#N)COCc2ccc(C(=O)NCc3cc4nc(-n5ccc(N6CCC6)n5)ccc4cn3)cc21 [Compound 426] | 500 to 1000 | 78 | 97 | 0.1 to 0.5

The remaining lines, values ahead:

Row | IC50 [1] [nM] | Emax [1] [%] | BRM Max % Inhibition [2] [%] | IC50 [2] [µM] | SMILES
19 | 500 to 1000 | 73 | 97 | 0.1 to 0.5 | C[C@@]1(C#N)COCc2ccc(C(=O)NCc3cc4c(cn3)CCN(c3ccnc(N5CCCC5)n3)C4)cc21 [Compound 331]
20 | 100 to 500 | 100 | 98 | < 0.1 | CN(C)c1cccc(-c2ccc3cnc(CNC(=O)c4ccc5c(c4)[C@](C)(F)COC5)cc3n2)n1 [Compound 248]
21 | 100 to 500 | 88 | 100 | < 0.1 | C[C@@]1(F)COCc2ncc(C(=O)NCc3cc4nc(-c5ccnc(N6CCC6)c5F)ccc4cn3)cc21 [Compound 296]
22 | < 100 | 101 | 100 | < 0.1 | O=C(NCc1cc2nc(-c3cncc(N4CCC4)n3)ccc2cn1)c1cc(F)c2c(c1)[C@](F)(C(F)F)COC2 [Compound 375]
23 | 100 to 500 | 87 | 100 | < 0.1 | COc1cncc(-c2ccc3nnc(CNC(=O)c4ccc5c(c4)[C@](C)(C#N)COC5)cc3c2)n1 [Compound 349]
24 | 500 to 1000 | 67 | 96 | 0.1 to 0.5 | COc1cc(N2CCOCC2)ccc1-c1ccc2cnc(CNC(=O)c3ccc4c(c3)[C@](C)(C#N)COC4)cc2n1 [Compound 155]
25 | 100 to 500 | 95 | 99 | < 0.1 | C[C@@]1(C#N)COCc2ccc(C(=O)NCc3cc4nc(-c5cncc(N6CC[C@H](F)C6)n5)ccc4cn3)cc21 [Compound 311]
26 | 500 to 1000 | 75 | 96 | 0.1 to 0.5 | C[C@@]1(F)COCc2ccc(C(=O)NCc3cc4nc(-c5ccnc(N6CCC6)n5)sc4cn3)cc21 [Compound 245]
27 | 100 to 500 | 97 | 98 | < 0.1 | C[C@@]1(F)COCc2ccc(C(=O)NCc3cc4nc(-c5ccnc(N6CC[C@H]7COC[C@@H]7C6)n5)ccc4cn3)cc21 [Compound 307]
28 | 500 to 1000 | 102 | 99 | 0.1 to 0.5 | C[C@@]1(C#N)COCc2ccc(C(=O)NCc3cc([C@H]4C[C@H](c5cccc(C6CC6)n5)C4)ccn3)cc21 [Compound 77]
29 | 100 to 500 | 85 | 98 | < 0.1 | C[C@@]1(C#N)COCc2ccc(C(=O)NCc3cc4nc(-c5cccc(C(F)F)n5)ccc4cn3)cc21 [Compound 469]
30 | 500 to 1000 | 89 | 97 | 0.1 to 0.5 | C[C@@]1(C#N)COCc2ccc(C(=O)NCc3cc([C@H]4C[C@@H](c5ccccc5)C4)ccn3)cc21 [Compound 19]
31 | 100 to 500 | 94 | 98 | < 0.1 | C[C@@]1(C#N)COCc2ccc(C(=O)NCc3cc4nc(-c5cccc6c5ccn6C5CC5)ccc4cn3)cc21 [Compound 173]
32 | 500 to 1000 | 50 | 90 | 0.1 to 0.5 | C[C@@]1(C#N)COCc2ccc(C(=O)NCc3cc(C4CCN(c5cccc(C(F)F)n5)C4)ccn3)cc21 (stereo partly shown) [Compound 69]
33 | 500 to 1000 | 86 | 98 | < 0.1 | C[C@@]1(C#N)COCc2ccc(C(=O)NCc3cc(N4CCc5ccccc5C4)ccn3)cc21 [Compound 28]
34 | 100 to 500 | 95 | 99 | < 0.1 | C[C@@]1(C#N)COCc2ccc(C(=O)NCc3cc4nc(-c5cccc6c5ccn6CCO)ccc4cn3)cc21 [Compound 159]
35 | 100 to 500 | 80 | 98 | 0.1 to 0.5 | COc1cc(N2CCC2)ccc1-c1ccc2cnc(CNC(=O)c3ccc4c(c3)[C@](C)(C#N)COC4)cc2n1 [Compound 146]
36 | 500 to 1000 | 61 | 96 | 0.1 to 0.5 | COc1nn(C)cc1-c1ccc2cnc(CNC(=O)c3cnc4c(c3)[C@](C)(F)COC4)cc2n1 [Compound 334]
37 | < 100 | 101 | 101 | < 0.1 | CN(C)c1cccc(-c2ccc3nnc(CNC(=O)c4ccc5c(c4)[C@](C)(C#N)COC5)cc3n2)n1 [Compound 223]
38 | 500 to 1000 | 79 | 100 | < 0.1 | COc1nn(C)cc1-c1ccc2cnc(CNC(=O)c3cc(F)c4c(c3)[C@](C)(F)COC4)cc2n1 [Compound 333]
39 | 100 to 500 | 96 | 103 | < 0.1 | CO[C@@H]1CCN(c2cncc(-c3ccc4cnc(CNC(=O)c5ccc6c(c5)[C@](C)(F)COC6)cc4c3)n2)C1 [Compound 266]
40 | 500 to 1000 | 84 | 95 | 0.1 to 0.5 | C[C@@]1(C#N)COCc2ccc(C(=O)NCc3cc4nc(-c5ccn6nccc6n5)ccc4cn3)cc21 [Compound 447]
41 | 100 to 500 | 93 | 99 | < 0.1 | C[C@@]1(F)COCc2ccc(C(=O)NCc3cc4nc(-c5cccc(N6CCC6)n5)cnc4cn3)cc21 [Compound 214]
42 | 100 to 500 | 97 | 99 | < 0.1 | CN(C)c1cncc(-c2ccc3cnc(CNC(=O)c4ccc5c(c4)[C@](C)(C#N)COC5)cc3n2)n1 [Compound 407]
43 | 100 to 500 | 86 | 97 | < 0.1 | COc1cc(C2COC2)ccc1-c1ccc2cnc(CNC(=O)c3ccc4c(c3)[C@](C)(C#N)COC4)cc2n1 [Compound 175]
